Results: ChEMBL document CHEMBL2203211, “Isocytosine-based inhibitors of xanthine oxidase: design, synthesis, SAR, PK and in vivo efficacy in rat model of hyperuricemia” (Bioorg Med Chem Lett, 2012)
Activity calls are given as the source filed them. The rule behind the calls is not given here.

Legend:
Rattus norvegicus [1] = assay: Antihyperuricemic activity in fasted rat assessed as reduction in potassium oxonate-induced uric acid level in serum at 10 mg/kg, po administered 1 hr post potassium oxonate-challenge relative to vehicle-treated control; type: functional; parameters: scale not given: the % may be the effect or the level left
Rattus norvegicus [2] = assay: Antihyperuricemic activity in fasted rat assessed as reduction in potassium oxonate-induced uric acid level in serum at 100 mg/kg, ip administered 1 hr post potassium oxonate-challenge relative to vehicle-treated control; type: functional; parameters: scale not given: the % may be the effect or the level left; details: route intraperitoneal
[3] = target: Xanthine dehydrogenase/oxidase (Homo sapiens, UniProt P47989)
Chain of Xanthine dehydrogenase/oxidase (P47989 whole entry): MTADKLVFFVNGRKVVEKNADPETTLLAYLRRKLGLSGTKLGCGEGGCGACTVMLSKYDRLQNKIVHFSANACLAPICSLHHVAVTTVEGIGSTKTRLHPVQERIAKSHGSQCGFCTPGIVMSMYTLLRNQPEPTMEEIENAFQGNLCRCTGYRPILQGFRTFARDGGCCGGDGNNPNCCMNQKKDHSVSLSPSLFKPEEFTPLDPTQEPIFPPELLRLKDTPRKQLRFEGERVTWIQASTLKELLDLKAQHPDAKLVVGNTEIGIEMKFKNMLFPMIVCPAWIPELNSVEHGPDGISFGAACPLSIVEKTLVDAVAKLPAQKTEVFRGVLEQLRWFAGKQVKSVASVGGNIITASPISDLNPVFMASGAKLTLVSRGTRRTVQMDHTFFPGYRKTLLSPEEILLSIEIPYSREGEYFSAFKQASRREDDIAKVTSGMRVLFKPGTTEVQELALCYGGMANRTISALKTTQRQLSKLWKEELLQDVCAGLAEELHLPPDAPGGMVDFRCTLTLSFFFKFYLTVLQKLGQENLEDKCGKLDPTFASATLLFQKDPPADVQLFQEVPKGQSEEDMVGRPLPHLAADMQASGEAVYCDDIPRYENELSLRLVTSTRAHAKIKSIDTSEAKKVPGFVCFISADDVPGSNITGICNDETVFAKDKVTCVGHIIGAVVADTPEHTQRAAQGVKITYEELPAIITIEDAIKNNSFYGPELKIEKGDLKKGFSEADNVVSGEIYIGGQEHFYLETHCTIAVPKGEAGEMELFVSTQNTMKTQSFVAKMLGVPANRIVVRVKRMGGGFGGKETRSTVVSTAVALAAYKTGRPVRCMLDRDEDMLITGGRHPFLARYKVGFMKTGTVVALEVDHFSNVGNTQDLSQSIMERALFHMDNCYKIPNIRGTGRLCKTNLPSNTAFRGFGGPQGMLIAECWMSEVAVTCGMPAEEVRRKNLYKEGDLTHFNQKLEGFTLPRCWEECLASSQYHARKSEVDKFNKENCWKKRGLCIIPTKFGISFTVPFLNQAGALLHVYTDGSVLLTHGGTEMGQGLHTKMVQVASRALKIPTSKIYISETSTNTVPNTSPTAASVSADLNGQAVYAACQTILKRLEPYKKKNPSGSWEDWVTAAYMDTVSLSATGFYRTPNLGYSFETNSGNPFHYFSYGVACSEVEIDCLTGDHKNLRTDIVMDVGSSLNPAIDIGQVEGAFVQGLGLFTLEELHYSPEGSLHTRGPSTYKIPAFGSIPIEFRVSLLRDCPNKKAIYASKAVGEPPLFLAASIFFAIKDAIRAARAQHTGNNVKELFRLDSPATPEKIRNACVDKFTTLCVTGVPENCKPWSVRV
Description: Inhibition of xanthine oxidase using xanthine as substrate at 30 mins by spectrophotometric analysis

Rattus norvegicus [4] = assay: Antihyperuricemic activity in fasted rat assessed as reduction in potassium oxonate-induced uric acid level in serum at 200 mg/kg, po administered 1 hr post potassium oxonate-challenge relative to vehicle-treated control; type: functional, organism-based; parameters: dose 200 mg/kg
[5] = Tmax in rat at 50 mg/kg, ip; type: ADME, organism-based; parameters: dose 50 mg/kg, route intraperitoneal; details: in vivo
Rattus norvegicus [6] = assay: Antihyperuricemic activity in fasted rat assessed as reduction in potassium oxonate-induced uric acid level in serum at 50 mg/kg, ip administered 1 hr post potassium oxonate-challenge relative to vehicle-treated control; type: functional; parameters: scale not given: the % may be the effect or the level left; details: route intraperitoneal
[7] = AUC (0 to infinity) in rat at 50 mg/kg, ip; type: ADME, organism-based; parameters: time infinity, dose 50 mg/kg, route intraperitoneal; details: plasma
[8] = Half life in rat at 50 mg/kg, ip; type: ADME, organism-based; parameters: dose 50 mg/kg, route intraperitoneal; details: in vivo
[9] = Cmax in rat at 50 mg/kg, ip; type: ADME, organism-based; parameters: dose 50 mg/kg, route intraperitoneal; details: in vivo
[10] = AUClast in rat at 50 mg/kg, ip; type: ADME, organism-based; parameters: time 0 - last, dose 50 mg/kg, route intraperitoneal; details: plasma
[11] = Clearance in rat at 2 mg/kg, iv; type: ADME, organism-based; parameters: dose 2 mg/kg, route intravenous; details: in vivo
[12] = Initial plasma concentration in rat at 2 mg/kg iv; type: ADME, organism-based; parameters: dose 2 mg/kg, route intravenous
[13] = Volume of distribution in rat at 2 mg/kg, iv; type: ADME, organism-based; parameters: dose 2 mg/kg, route intravenous; details: in vivo
[14] = Half life in rat at 2 mg/kg, iv; type: ADME, organism-based; parameters: dose 2 mg/kg, route intravenous; details: in vivo
[15] = AUClast in rat at 2 mg/kg, iv; type: ADME, organism-based; parameters: time 0 - last, dose 2 mg/kg, route intravenous; details: plasma
[16] = AUC (0 to infinity) in rat at 2 mg/kg, iv; type: ADME, organism-based; parameters: time infinity, dose 2 mg/kg, route intravenous; details: plasma
[17] = Cmax in rat at 2 mg/kg, iv; type: ADME, organism-based; parameters: dose 2 mg/kg, route intravenous; details: in vivo
[18] = Tmax in rat at 2 mg/kg, iv; type: ADME, organism-based; parameters: dose 2 mg/kg, route intravenous; details: in vivo
[19] = Half life in rat at 10 mg/kg, po; type: ADME, organism-based; parameters: dose 10 mg/kg, route oral; details: in vivo
[20] = AUC (0 to infinity) in rat at 10 mg/kg, po; type: ADME, organism-based; parameters: time infinity, dose 10 mg/kg, route oral; details: plasma
[21] = Cmax in rat at 10 mg/kg, po; type: ADME, organism-based; parameters: dose 10 mg/kg, route oral; details: in vivo
[22] = AUClast in rat at 10 mg/kg, po; type: ADME, organism-based; parameters: time 0 - last, dose 10 mg/kg, route oral; details: plasma
[23] = Tmax in rat at 10 mg/kg, po; type: ADME, organism-based; parameters: dose 10 mg/kg, route oral; details: in vivo
Rattus norvegicus [24] = assay: Antihyperuricemic activity in fasted rat assessed as reduction in potassium oxonate-induced uric acid level in serum at 100 mg/kg, po administered 1 hr post potassium oxonate-challenge relative to vehicle-treated control; type: functional; parameters: scale not given: the % may be the effect or the level left
[25] = Half life in rat at 100 mg/kg, po; type: ADME, organism-based; parameters: dose 100 mg/kg, route oral; details: in vivo
[26] = AUC (0 to infinity) in rat at 100 mg/kg, po; type: ADME, organism-based; parameters: time infinity, dose 100 mg/kg, route oral; details: plasma
[27] = AUClast in rat at 100 mg/kg, po; type: ADME, organism-based; parameters: time 0 - last, dose 100 mg/kg, route oral; details: plasma
[28] = Cmax in rat at 100 mg/kg, po; type: ADME, organism-based; parameters: dose 100 mg/kg, route oral; details: in vivo
[29] = Tmax in rat at 100 mg/kg, po; type: ADME, organism-based; parameters: dose 100 mg/kg, route oral; details: in vivo
Rattus norvegicus [30] = assay: Antihyperuricemic activity in fasted rat assessed as reduction in potassium oxonate-induced uric acid level in serum at 100 mg/kg, po administered 1 hr post potassium oxonate-challenge relative to allopurinol; type: functional

With `Oc1ncnc2[nH]ncc12` [ALLOPURINOL] the Activity (Rattus norvegicus [1]) was 130% and the Activity (Rattus norvegicus [2]) was 177%.
For `CCCCOc1ccc(-c2cc(=O)[nH]c(N)n2)cc1`, the IC50 [3] was 2100 nM.
For `Nc1nc(O)cc(-c2ccc(N3CCOCC3)cc2)n1`, the IC50 [3] was 16500 nM.
In the case of `Nc1nc(-c2ccc(O)cc2)cc(=O)[nH]1`, the IC50 [3] is reported as > 30000 nM.
With `CC(C)COc1ccc(-c2cc(O)nc(N)n2)cc1C#N` the Activity (Rattus norvegicus [4]) was “inactive” and the Activity (Rattus norvegicus [2]) was 124%.
Compound `COc1cc(-c2cc(O)nc(N)n2)ccc1OCC(C)C` has a Tmax [5] of 2 h, an Activity (Rattus norvegicus [6]) of 55% and an AUC(0-inf) [7] of 27700 ng·h/mL. For the same compound, the half-life [8] was 0.85 h, the Cmax [9] was 34.3 µM and the AUC(0-t) [10] was 27600 ng·h/mL. The IC50 [3] was 950 nM.
With `CC(C)COc1ccc(-c2cc(=O)[nH]c(N)n2)cc1OC(F)(F)F` the IC50 [3] was > 20000 nM.
`CC(C)COc1ccc(-c2cc(=O)[nH]c(N)n2)cc1C#N` showed a clearance [11] of 71.3 mL/min/kg, a C0 [12] of 1360 ng/mL and a Vd [13] of 3.83 L/kg. The half-life [14] was 0.63 h, the AUC(0-t) [15] was 470 ng·h/mL and the AUC(0-inf) [16] was 480 ng·h/mL. It also gave a Cmax [17] of 4.19 µM, a Tmax [18] of 1.8 min and a half-life [19] of 11.4 h. For the same compound, the AUC(0-inf) [20] was 310 ng·h/mL, the Cmax [21] was 0.23 µM and the AUC(0-t) [22] was 200 ng·h/mL. The Tmax [23] was 0.19 h.
`CC(C)COc1ccc(-c2cc(O)nc(N)n2)cc1[N+](=O)[O-]` showed a Tmax [5] of 2 h, an Activity (Rattus norvegicus [2]) of 133% and an Activity (Rattus norvegicus [24]) of 93%. For the same compound, the AUC(0-inf) [7] was 17600 ng·h/mL, the half-life [8] was 12.2 h and the Cmax [9] was 9.59 µM. It also gave an AUC(0-t) [10] of 14000 ng·h/mL and an IC50 [3] of 140 nM.
Compound `CCCCSc1ccc(-c2cc(=O)[nH]c(N)n2)cc1` has an IC50 [3] of 1630 nM.
For `Nc1nc(O)cc(-c2ccc(OCCCO)cc2)n1`, the IC50 [3] was 9240 nM.
In the case of `CC(C)COc1ccc(-c2cc(=O)[nH]c(N)n2)cc1C(N)=O`, the IC50 [3] is reported as 1920 nM.
In the case of `Nc1nc(-c2ccc(-c3ccccc3)cc2)cc(=O)[nH]1`, the Tmax [5] is reported as 3.33 h, the half-life [25] is reported as 2.85 h and the AUC(0-inf) [26] is reported as 890 ng·h/mL. The AUC(0-t) [27] was 600 ng·h/mL, the Cmax [28] was 0.81 µM and the Tmax [29] was 0.88 h. It also gave an AUC(0-inf) [7] of 23100 ng·h/mL, a half-life [8] of 5.52 h and a Cmax [9] of 7.13 µM. For the same compound, the AUC(0-t) [10] was 21900 ng·h/mL.
For `CC(C)COc1ccc(-c2cc(=O)[nH]c(N)n2)cc1N`, the IC50 [3] was 6720 nM.
`CC(C)Cc1ccc(-c2cc(O)nc(N)n2)cc1` showed an IC50 [3] of 4950 nM.
`CC(C)COc1ccc(-c2cc(O)nc(N)n2)cc1` showed a half-life [25] of 3.42 h, an AUC(0-inf) [26] of 5680 ng·h/mL and an AUC(0-t) [27] of 4390 ng·h/mL. For the same compound, the Cmax [28] was 5.16 µM, the Tmax [29] was 0.5 h and the Activity (Rattus norvegicus [2]) was 77%. It also gave an Efficacy (Rattus norvegicus [30]) of 18% and an Activity (Rattus norvegicus [24]) of 23.7%.
For `Cc1nc(-c2ccc(OCC(C)C)c(C#N)c2)sc1C(=O)O` [FEBUXOSTAT], the Activity (Rattus norvegicus [1]) was 180%, the Activity (Rattus norvegicus [2]) was 181% and the IC50 [3] was 30 nM.
Work on `COc1ccc(-c2cc(=O)[nH]c(N)n2)cc1` yielded a half-life [25] of 6.59 h, an AUC(0-inf) [26] of 4110 ng·h/mL and an AUC(0-t) [27] of 4080 ng·h/mL. For the same compound, the Cmax [28] was 23.5 µM and the Tmax [29] was 0.25 h.
`Nc1nc(O)cc(-c2ccc(Oc3ccccc3)cc2)n1` gave an IC50 [3] of 2470 nM.
In the case of `CC(C)Sc1ccc(-c2cc(O)nc(N)n2)cc1`, the IC50 [3] is reported as 2440 nM.
